Measured values as given in patent US10214519B2, “Phosphatidylinositol 3-kinase inhibitors” (Gilead Sciences, Inc., priority 2016, dated 2019).

biological target: PI3Kβ (Homo sapiens (Human), UniProt P42338); assay: PI3K isoform TR-FRET enzymatic assay (PI3Kβ); format: biochemical; conditions: 2× Km ATP, 30 minutes at 25° C.
Summary of the method: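 Heterodimeric recombinant PI3Kβ was incubated with compound 30 minutes at 25° C. Product was detected by TR-FRET competition with 10 nM labeled PIP3 for 35 nM Eu-GRP-1 PH domain after EDTA stop. Data were normalized to 1 μM wortmannin and DMSO, and IC50 was taken from a four-parameter fit.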

PI3Kβ, sequence (P42338 whole entry, the tested form may be a part, canonical isoform): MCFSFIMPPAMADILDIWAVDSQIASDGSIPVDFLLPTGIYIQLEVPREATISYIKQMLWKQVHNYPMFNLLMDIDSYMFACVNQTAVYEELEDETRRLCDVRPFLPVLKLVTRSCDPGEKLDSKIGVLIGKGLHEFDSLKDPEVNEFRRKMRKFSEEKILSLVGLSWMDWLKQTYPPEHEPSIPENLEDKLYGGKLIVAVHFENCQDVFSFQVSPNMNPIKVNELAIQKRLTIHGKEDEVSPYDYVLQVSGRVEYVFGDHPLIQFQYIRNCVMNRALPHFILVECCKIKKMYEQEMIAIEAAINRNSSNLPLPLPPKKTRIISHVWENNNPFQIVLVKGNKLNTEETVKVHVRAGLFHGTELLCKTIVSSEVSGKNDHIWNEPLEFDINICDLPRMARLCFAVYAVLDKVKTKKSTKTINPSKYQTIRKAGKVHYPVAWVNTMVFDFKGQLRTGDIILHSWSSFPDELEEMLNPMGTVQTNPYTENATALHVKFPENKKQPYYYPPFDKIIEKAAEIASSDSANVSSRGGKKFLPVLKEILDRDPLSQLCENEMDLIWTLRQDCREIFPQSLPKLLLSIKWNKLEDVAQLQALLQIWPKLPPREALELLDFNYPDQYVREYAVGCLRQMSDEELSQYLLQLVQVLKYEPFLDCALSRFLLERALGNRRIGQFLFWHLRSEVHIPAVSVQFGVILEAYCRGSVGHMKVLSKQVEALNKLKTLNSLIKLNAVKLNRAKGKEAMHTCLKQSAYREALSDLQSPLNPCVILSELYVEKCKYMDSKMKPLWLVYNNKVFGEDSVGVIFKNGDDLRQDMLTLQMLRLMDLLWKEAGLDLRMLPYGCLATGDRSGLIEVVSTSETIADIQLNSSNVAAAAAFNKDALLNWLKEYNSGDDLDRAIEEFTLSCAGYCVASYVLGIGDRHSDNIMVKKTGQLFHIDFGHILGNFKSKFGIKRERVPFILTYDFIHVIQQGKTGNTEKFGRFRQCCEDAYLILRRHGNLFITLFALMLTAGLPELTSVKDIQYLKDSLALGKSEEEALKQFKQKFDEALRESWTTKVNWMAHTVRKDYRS
PI3Kβ, sequence (P27986 whole entry partner, the tested form may be a part, canonical isoform): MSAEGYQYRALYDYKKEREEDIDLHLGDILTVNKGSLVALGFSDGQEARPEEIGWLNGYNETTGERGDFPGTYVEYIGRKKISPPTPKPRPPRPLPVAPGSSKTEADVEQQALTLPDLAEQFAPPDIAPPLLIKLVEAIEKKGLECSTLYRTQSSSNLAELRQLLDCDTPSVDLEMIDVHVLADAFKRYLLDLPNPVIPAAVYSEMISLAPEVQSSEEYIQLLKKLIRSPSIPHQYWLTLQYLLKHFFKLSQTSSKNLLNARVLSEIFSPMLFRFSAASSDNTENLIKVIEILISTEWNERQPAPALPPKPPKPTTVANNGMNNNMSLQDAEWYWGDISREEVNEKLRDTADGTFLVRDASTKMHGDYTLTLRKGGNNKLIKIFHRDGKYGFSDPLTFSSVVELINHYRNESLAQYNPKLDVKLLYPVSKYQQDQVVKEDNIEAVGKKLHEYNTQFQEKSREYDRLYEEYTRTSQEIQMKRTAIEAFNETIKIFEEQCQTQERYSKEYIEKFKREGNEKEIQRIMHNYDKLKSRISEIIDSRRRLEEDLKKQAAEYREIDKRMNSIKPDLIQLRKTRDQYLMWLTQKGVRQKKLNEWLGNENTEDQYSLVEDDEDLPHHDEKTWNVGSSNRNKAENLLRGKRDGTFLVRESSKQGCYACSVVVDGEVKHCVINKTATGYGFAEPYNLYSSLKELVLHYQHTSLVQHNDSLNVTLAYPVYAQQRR

SMILES | IC50 [nM]
CCCc1nc2c(-c3ccn[nH]3)cc(N3CCOCC3)cc2n1-c1ccnc2c(F)ccc(F)c12 [Example 389] | 16
Fc1ccc(F)c2c(-n3cnc4c(-c5cnc(C(F)(F)F)[nH]5)cc(N5CCOCC5)cc43)ccnc12 [Example 390, 4-(1-(5,8-difluoroquinolin-4-yl)-4-(2-(trifluoromethyl)-1H-imidazol-5-yl)-1H-benzo[d]imidazol-6-yl)morpholine] | 840
CCc1nc2c(-c3nnc[nH]3)cc(N3CCOCC3)cc2n1-c1c(-c2nnc[nH]2)cnc2ccccc12 [Example 391, 4-(1-(3-(4H-1,2,4-triazol-3-yl)quinolin-4-yl)-2-ethyl-4-(4H-1,2,4-triazol-3-yl)-1H-benzo[d]imidazol-6-yl)morpholine] | 10
Cc1nc2c(-c3nnc[nH]3)cc(N3CCOCC3)cc2n1-c1c(-c2nnc[nH]2)cnc2ccccc12 [Example 392, 4-(1-(3-(4H-1,2,4-triazol-3-yl)quinolin-4-yl)-2-methyl-4-(4H-1,2,4-triazol-3-yl)-1H-benzo[d]imidazol-6-yl)morpholine] | 9
Cc1nc2c(-c3nnc(N)[nH]3)cc(N3CCOCC3)cc2n1-c1ccnc2c(F)ccc(F)c12 [Example 393, 5-(1-(5,8-difluoroquinolin-4-yl)-2-methyl-6-morpholino-1H-benzo[d]imidazol-4-yl)-4H-1,2,4-triazol-3-amine] | 21
